Results as given in patent US20250108038A1 (priority 2023, published 2025).
Where “and” joins values, the source holds several entries; their conditions need not be identical. Identical values can stand only once.

Test system: Long Evans rats
Experiment: Behavioral satiety sequence (BSS)
Format: in vivo, Long Evans rat
Settings: Compound I-19 0.3 mg/kg
Excerpt: The Behavioural Satiety Sequence (BSS) is a technique used to evaluate physiological satiety. It is based on the expression of a sequence of behaviors including eating, grooming, locomotor activity, followed by resting, which are typically observed in rodents post-ingestion (Halford et al, 1998, Pharmacology Biochemistry and Behaviour. 61(2): 159-168). The BSS is a widely used model for determining the effects of novel pharmaceuticals on food intake and measures of satiety in rodents (Oliveira et al, 2011, Revista de Nutrição. 24(4) 619-628), and to discriminate the cause of reduced food intake following pharmacological manipulation. For example, treatments that may reduce food intake by non-specific mechanisms, such as immobility, malaise, and taste adulteration, will disrupt this sequence (Halford et al, 1998, Pharmacology Biochemistry and Behaviour. 61(2): 159-168).
Specifically, 12 male Long-Evans rats were food-deprived for 22 h with a 2 h feeding period each day. Rats were trained to consume daily food during the 2 h period over 25 days. The testing phase was initiated once the rats consistently consumed 16-18 g of food per day with ≤10% variance in amount of feed consumed. Feeding took place in designated individual boxes in a quiet room separate from the housing room. Continuous remote monitoring via video camera during feeding was used to assess the BSS. Food consumption was measured by weighing the total available food before and after the 2 h feeding window, correcting for spillage. Lorcaserin (1 mg/kg) was included as a reference control (Higgins et al, 2011, Neuropsychopharmacology. 37(5): 1177-1191). Subjects were tested using a repeated-measures, Latin square design with 2-3 days wash-out between treatment cycles.
On scheduled test days, animals were monitored remotely via video camera during the feeding access period. The occurrence of four mutually exclusive behaviors (eating/drinking, grooming, active, rest) were individually scored. Over the 2 h feeding period, behaviors were assessed every 30 seconds. Scores were compiled into 23 5 min timebins (timebin 24 was removed due to early removal of animals) and the frequency of each behavior within each timebin was calculated to determine a temporal frequency of each measure (Rodgers et al, 2010, Pharmacology Biochemistry and Behaviour. 97: 3-14). Percentage time was plotted for each behavioral sequence in each timebin to compare between treatment groups (Higgins et al, 2011, Neuropsychopharmacology. 37(5): 1177-1191).

[1] = AVG of animals LT-1 to LT-12, 0-0.5 hours
[2] = raw data per animal LT-1 to LT-12, 0-0.5 hours
[3] = raw score per animal (LT-1 to LT-12)

Structure (SMILES): Clc1ccc(C2(OCC3OCCO3)c3ccccc3C3=NCCN32)cc1 (stereo not drawn) [Compound I-19]
- BSS scoring G (grooming), Time Bin 19 (90-95 TOTAL), AVG (AVG of animals LT-1 to LT-12): 0.05
- BSS scoring G (grooming), Time Bin 20 (95-100 TOTAL), AVG (AVG of animals LT-1 to LT-12): 0.05
- BSS scoring G (grooming), Time Bin 21 (100-105 TOTAL), AVG (AVG of animals LT-1 to LT-12): 0.02
- BSS scoring G (grooming), Time Bin 22 (105-110 TOTAL), AVG (AVG of animals LT-1 to LT-12): 0.01
- BSS scoring G (grooming), Time Bin 23 (110-115 TOTAL), AVG (AVG of animals LT-1 to LT-12): 0.05
- BSS scoring G (grooming), Time Bin 24 (115-120 TOTAL), AVG (AVG of animals LT-1 to LT-12): 0.04
- BSS scoring R (resting), Time Bin 19 (90-95 TOTAL), AVG (AVG of animals LT-1 to LT-12): 0.11
- BSS scoring R (resting), Time Bin 20 (95-100 TOTAL), AVG (AVG of animals LT-1 to LT-12): 0.09
- BSS scoring R (resting), Time Bin 21 (100-105 TOTAL), AVG (AVG of animals LT-1 to LT-12): 0.19
- BSS scoring R (resting), Time Bin 22 (105-110 TOTAL), AVG (AVG of animals LT-1 to LT-12): 0.21
- BSS scoring R (resting), Time Bin 23 (110-115 TOTAL), AVG (AVG of animals LT-1 to LT-12): 0.16
- BSS scoring R (resting), Time Bin 24 (115-120 TOTAL), AVG (AVG of animals LT-1 to LT-12): 0.21
- BSS scoring A (active), Time Bin 1 (0-5 TOTAL), AVG [1]: 0.09
- BSS scoring A (active), Time Bin 2 (5-10 TOTAL), AVG [1]: 0.02
- BSS scoring A (active), Time Bin 3 (10-15 TOTAL), AVG [1]: 0.03
- BSS scoring A (active), Time Bin 4 (15-20 TOTAL), AVG [1]: 0.08
- BSS scoring A (active), Time Bin 5 (20-25 TOTAL), AVG [1]: 0.07
- BSS scoring A (active), Time Bin 6 (25-30 TOTAL), AVG [1]: 0.08
- BSS scoring E (eating/drinking), Time Bin 1 (0-5 TOTAL), AVG [1]: 0.88
- BSS scoring E (eating/drinking), Time Bin 2 (5-10 TOTAL), AVG [1]: 0.95
- BSS scoring E (eating/drinking), Time Bin 3 (10-15 TOTAL), AVG [1]: 0.94
- BSS scoring E (eating/drinking), Time Bin 4 (15-20 TOTAL), AVG [1]: 0.90
- BSS scoring E (eating/drinking), Time Bin 5 (20-25 TOTAL), AVG [1]: 0.88
- BSS scoring E (eating/drinking), Time Bin 6 (25-30 TOTAL), AVG [1]: 0.88
- BSS scoring G (grooming), Time Bin 1 (0-5 TOTAL), AVG [1]: 0.03
- BSS scoring G (grooming), Time Bin 2 (5-10 TOTAL), AVG [1]: 0.03
- BSS scoring G (grooming), Time Bin 3 (10-15 TOTAL), AVG [1]: 0.03
- BSS scoring G (grooming), Time Bin 4 (15-20 TOTAL), AVG [1]: 0.01
- BSS scoring G (grooming), Time Bin 5 (20-25 TOTAL), AVG [1]: 0.03
- BSS scoring G (grooming), Time Bin 6 (25-30 TOTAL), AVG [1]: 0.02
- BSS scoring R (resting), Time Bin 1 (0-5 TOTAL), AVG [1]: 0.01
- BSS scoring R (resting), Time Bin 2 (5-10 TOTAL), AVG [1]: 0.00
- BSS scoring R (resting), Time Bin 3 (10-15 TOTAL), AVG [1]: 0.00
- BSS scoring R (resting), Time Bin 4 (15-20 TOTAL), AVG [1]: 0.02
- BSS scoring R (resting), Time Bin 5 (20-25 TOTAL), AVG [1]: 0.03
- BSS scoring R (resting), Time Bin 6 (25-30 TOTAL), AVG [1]: 0.03
- BSS scoring A (active), Time Bin 1 (0-5 TOTAL) [2]: 1 (5×) and 0 (4×) and 2 (3×)
- BSS scoring A (active), Time Bin 2 (5-10 TOTAL) [2]: 0 (10×) and 1 (2×)
- BSS scoring A (active), Time Bin 3 (10-15 TOTAL) [2]: 0 (9×) and 2 and 1 (2×)
- BSS scoring A (active), Time Bin 4 (15-20 TOTAL) [2]: 0 (7×) and 1 (3×) and 2 and 4
- BSS scoring A (active), Time Bin 5 (20-25 TOTAL) [2]: 3 and 0 (7×) and 1 (3×) and 2
- BSS scoring A (active), Time Bin 6 (25-30 TOTAL) [2]: 1 (3×) and 0 (6×) and 2 (3×)
- BSS scoring E (eating/drinking), Time Bin 1 (0-5 TOTAL) [2]: 9 (6×) and 7 and 8 (3×) and 10 (2×)
- BSS scoring E (eating/drinking), Time Bin 2 (5-10 TOTAL) [2]: 9 (6×) and 10 (6×)
- BSS scoring E (eating/drinking), Time Bin 3 (10-15 TOTAL) [2]: 10 (6×) and 9 (5×) and 8
- BSS scoring E (eating/drinking), Time Bin 4 (15-20 TOTAL) [2]: 10 (4×) and 9 (6×) and 8 and 6
- BSS scoring E (eating/drinking), Time Bin 5 (20-25 TOTAL) [2]: 6 and 9 (6×) and 10 (3×) and 8 and 7
- BSS scoring E (eating/drinking), Time Bin 6 (25-30 TOTAL) [2]: 9 (2×) and 10 (5×) and 7 and 8 (3×) and 6
- BSS scoring G (grooming), Time Bin 1 (0-5 TOTAL) [2]: 0 (9×) and 1 (3×)
- BSS scoring G (grooming), Time Bin 2 (5-10 TOTAL) [2]: 1 (4×) and 0 (8×)
- BSS scoring G (grooming), Time Bin 3 (10-15 TOTAL) [2]: 0 (9×) and 1 (3×)
- BSS scoring G (grooming), Time Bin 4 (15-20 TOTAL) [2]: 0 (11×) and 1
- BSS scoring G (grooming), Time Bin 5 (20-25 TOTAL) [2]: 1 (4×) and 0 (8×)
- BSS scoring G (grooming), Time Bin 6 (25-30 TOTAL) [2]: 0 (10×) and 1 (2×)
- BSS scoring R (resting), Time Bin 1 (0-5 TOTAL) [2]: 0 (11×) and 1
- BSS scoring R (resting), Time Bin 2 (5-10 TOTAL) [2]: 0
- BSS scoring R (resting), Time Bin 3 (10-15 TOTAL) [2]: 0
- BSS scoring R (resting), Time Bin 4 (15-20 TOTAL) [2]: 0 (10×) and 1 (2×)
- BSS scoring R (resting), Time Bin 5 (20-25 TOTAL) [2]: 0 (10×) and 1 and 2
- BSS scoring R (resting), Time Bin 6 (25-30 TOTAL) [2]: 0 (10×) and 3 and 1
- BSS scoring A (active), Time Bin 19 (90-95 TOTAL) [3]: 0 (4×) and 5 (2×) and 2 (2×) and 6 and 3 and 1 (2×)
- BSS scoring A (active), Time Bin 20 (95-100 TOTAL) [3]: 3 (2×) and 2 (2×) and 0 (4×) and 1 (2×) and 4 (2×)
- BSS scoring A (active), Time Bin 21 (100-105 TOTAL) [3]: 0 (7×) and 1 (3×) and 2 (2×)
- BSS scoring A (active), Time Bin 22 (105-110 TOTAL) [3]: 0 (8×) and 4 and 1 and 2 (2×)
- BSS scoring A (active), Time Bin 23 (110-115 TOTAL) [3]: 4 (2×) and 3 and 1 and 0 (4×) and 6 (2×) and 2 and 7
- BSS scoring A (active), Time Bin 24 (115-120 TOTAL) [3]: 0 (6×) and 3 (2×) and 5 and 1 (2×) and 4
- BSS scoring E (eating/drinking), Time Bin 19 (90-95 TOTAL) [3]: 9 (5×) and 4 (2×) and 0 and 2 and 7 and 8 and 5
- BSS scoring E (eating/drinking), Time Bin 20 (95-100 TOTAL) [3]: 7 and 6 (2×) and 10 (3×) and 9 and 8 (2×) and 1 and 4 (2×)
- BSS scoring E (eating/drinking), Time Bin 21 (100-105 TOTAL) [3]: 10 (4×) and 9 (2×) and 6 and 7 and 0 and 8 and 5 and 4
- BSS scoring E (eating/drinking), Time Bin 22 (105-110 TOTAL) [3]: 10 (6×) and 0 (2×) and 3 and 7 and 8 and 5
- BSS scoring E (eating/drinking), Time Bin 23 (110-115 TOTAL) [3]: 5 (2×) and 6 and 9 (2×) and 1 (2×) and 4 (2×) and 0 and 8 and 10
- BSS scoring E (eating/drinking), Time Bin 24 (115-120 TOTAL) [3]: 0 (3×) and 6 (2×) and 10 and 4 (2×) and 2 and 8 (2×) and 5
- BSS scoring G (grooming), Time Bin 19 (90-95 TOTAL) [3]: 0 (8×) and 1 (3×) and 3
- BSS scoring G (grooming), Time Bin 20 (95-100 TOTAL) [3]: 0 (8×) and 1 (2×) and 2 (2×)
- BSS scoring G (grooming), Time Bin 21 (100-105 TOTAL) [3]: 0 (10×) and 1 (2×)
